Legend:
[1] = test system: constitutive active colorectal cancer cell (CRC) Wnt pathway; assay: HCT116 TOPFlash cellular reporter assay (Super TopFlash vector, luciferase); assay type: cell-based; details: Homo sapiens, HCT-116; HCT116 Super TopFlash reporter cells, 36 hours incubation, dilution series 50 μM to 15 nM, luciferase expression
Description: In order to discover and characterize small molecules which inhibit the constitutive active colorectal cancer cell (CRC) Wnt pathway, a cellular reporter assay was employed. The corresponding assay cell was generated by transfection of the colorectal cancer cell line HCT116 (ATCC, #CCL-247) with the Super TopFlash vector (Morin, Science 275, 1997, 1787-1790; Molenaar et al., Cell 86 (3), 1996, 391-399). The HCT116 cell line is cultivated at 37° C. and 5% CO2 in DMEM/F-12 (Life Technologies, #11320-074), supplemented with 2 mM glutamine, 20 mM HEPES, 1.4 mM pyruvate, 0.15% Na-bicarbonate and 10% foetal bovine serum (GIBCO, #10270), this cancer cell line is pathophysiological relevant since it carries a deletion of position S45 in the β-catenin gene, leading to constitutive active Wnt signaling. Stable transfectants were generated by cotransfection with pcDNA3 and selection of stable transfected cells with 1 mg/ml G418.
(§1) In preparation of the assay, the two cell lines were plated 24 hours before at 10000 cells per well of a 384 micro titre plate (MTP) in 30 μL growth medium. Selective inhibitory activity for small molecules on the mutated Wnt pathway was determined after parallel incubation of both (TOP and FOP) HCT116 reporter cell lines with a compound dilution series from 50 μM to 15 nM in steps of 3.16-fold dilutions in CAFTY buffer (130 mM NaCl, 5 mM KCl, 20 mM HEPES, 1 mM MgCl2, 5 mM NaHCO3, pH 7.4) containing 2 mM Ca^2+ and 0.01% BSA. The compounds were thereby serially prediluted in 100% DMSO and thereafter in addition 50 fold into the CAFTY compound dilution buffer (described above). From this dilution 10 μL were added to the cells in 30 μL growth medium and incubated for 36 hours at 37° C. and 5% CO2.

[2] = test system: HCT116 cells cotransfected with the FOP control vector (non-functional TCF elements); assay: HCT116 FOPFlash control reporter assay (FOP control vector, luciferase); assay type: cell-based; details: Homo sapiens, HCT-116, 36 hours incubation, dilution series 50 μM to 15 nM, luciferase expression
Description: In a parallel approach, HCT116 cells were cotransfected with the FOP control vector and pcDNA3. The FOP vector is identical to the TOP construct, but it contains instead of functional TCF elements a randomized, non-functional sequence. For this transfection a stable transfected cell line was generated as well.
as §1

| SMILES | IC50 [1] | IC50 [2] |
| --- | --- | --- |
| COc1ccc(C(=O)Nc2ccc(-c3ccccc3)cc2)cc1C(=O)Nc1cccnc1C [Example 62, N^1-(biphenyl-4-yl)-4-methoxy-N^3-(2-methylpyridin-3-yl)isophthalamide] | 45 µM | ≥ 50 µM |
| COc1cc(NC(=O)c2cc(C(=O)Nc3ccc(-c4ccccc4)cc3)ccc2OC)ccn1 [Example 38, N^1-(biphenyl-4-yl)-4-methoxy-N^3-(2-methoxypyridin-4-yl)isophthalamide] | 1.11 µM | 21 µM |
| O=C(Nc1ccc(-c2ccccc2)cc1)c1ccc(OC(F)(F)F)c(C(=O)Nc2cccnc2)c1 [Example 45, N^1-(biphenyl-4-yl)-N^3-(pyridin-3-yl)-4-(trifluoromethoxy) isophthalamide] | 2.6 µM | ≥ 50 µM |
| COc1ccc(C(=O)Nc2ccc(-c3ccccc3)cc2)cc1C(=O)NCc1ccc(N)nc1 [Example 61, N^3-[(6-aminopyridin-3-yl)methyl]-N^1-(bipheny-4-yl)-4-methoxyisophthalamide] | 34 µM | ≥ 50 µM |
| O=C(Nc1ccc(-c2ccccc2F)nc1)c1ccc(OC(F)(F)F)c(C(=O)NCc2ccccn2)c1 [Example 52, N^1-[6-(2-fluorophenyl)pyridin-3-yl]-N^3-(pyridin-2-ylmethyl)-4-(trifluoromethoxy) isophthalamide] | 1.75 µM | 12 µM |
| COc1ccc(C(=O)Nc2ccc(-c3ccccc3F)nc2)cc1C(=O)NCc1ccccn1 [Example 53, N^1-[6-(2-fluorophenyl)pyridin-3-yl]-4-methoxy-N^3-(pyridin-2-ylmethyl)isophthalamide] | 10 µM | ≥ 50 µM |
| CC(C)(C)OC(=O)Nc1ccc(CNC(=O)c2cc(C(=O)Nc3ccc(-c4ccccc4F)nc3)ccc2OC(F)(F)F)cn1 [Example 48, tert-butyl [5-({[5-{[6-(2-fluorophenyl)pyridin-3-yl]carbamoyl}-2-(trifluoromethoxy)benzoyl]amino}methyl)pyridin-2-yl]carbamate] | 2.05 µM | 37 µM |
| COc1ccc(C(=O)Nc2ccc(-c3ccccc3F)nc2)cc1C(=O)Nc1cncc(C)c1 [Example 63, N^1-[6-(2-fluorophenyl)pyridin-3-yl]-4-methoxy-N^3-(5-methylpyridin-3-yl)isophthalamide] | 26.7 µM | ≥ 50 µM |
| COc1cc(NC(=O)c2cc(C(=O)Nc3ccc(-c4ccccc4F)nc3)ccc2OC)ccn1 [Example 44, N^1-[6-(2-fluorophenyl)pyridin-3-yl]-4-methoxy-N^3-(2-methoxypyridin-4-yl)isophthalamide] | 2.82 µM | ≥ 50 µM |
| COc1ccc(C(=O)Nc2ccc(-c3ccccc3F)nc2)cc1C(=O)Nc1ccncc1C [Example 46, N^1-[6-(2-fluorophenyl)pyridin-3-yl]-4-methoxy-N^3-(3-methylpyridin-4-yl)isophthalamide] | 2.23 µM | ≥ 50 µM |
| COc1ccc(NC(=O)c2ccc(-c3ccccc3)cc2)cc1C(=O)NCc1cccc(C)n1 [Example 34, N-(4-methoxy-3-{[(6-methylpyridin-2-yl)methyl]carbamoyl}phenyl) biphenyl-4-carboxamide] | 3.65 µM | ≥ 50 µM |
| COc1ccc(C(=O)Nc2ccc(-c3ccccc3)cc2)cc1C(=O)Nc1cccnc1 [Example 55, N^1-(biphenyl-4-yl)-4-methoxy-N^3-(pyridin-3-yl)isophthalamide] | 4.9 µM | 23 µM |
| COc1ccc(NC(=O)c2ccc(-c3ccccc3)cc2)cc1C(=O)NCc1ccccc1 [Example 33, N-[3-(benzylcarbamoyl)-4-methoxyphenyl]biphenyl-4-carboxamide] | 3.35 µM | ≥ 50 µM |
| Cc1cncc(NC(=O)c2cc(C(=O)Nc3ccc(-c4ccccc4)cc3)ccc2OC(F)(F)F)c1 [Example 47, N^1-(biphenyl-4-yl)-N^3-(5-methylpyridin-3-yl)-4-(trifluoromethoxy) isophthalamide] | 2.63 µM | ≥ 50 µM |
| CCc1cc(NC(=O)c2cc(NC(=O)c3ccc(-c4ccccc4)cc3)ccc2OC)ccn1 [Example 36, N-{3-[(2-ethylpyridin-4-yl)carbamoyl]-4-methoxyphenyl}biphenyl-4-carboxamide] | 1.43 µM | 29 µM |
| Nc1cccc(CNC(=O)c2cc(C(=O)Nc3ccc(-c4ccccc4F)nc3)ccc2OC(F)(F)F)n1 [Example 49, N^3-[(6-aminopyridin-2-yl)methyl]-N^1-[6-(2-fluorophenyl)pyridin-3-yl]-4-(trifluoromethoxy) isophthalamide] | 4.8 µM | ≥ 50 µM |
| COc1ccc(C(=O)Nc2ccc(-c3ccccc3)cc2)cc1C(=O)NCc1ccc(NC(=O)OC(C)(C)C)nc1 [Example 54, tert-butyl [5-({[5-(biphenyl-4-ylcarbamoyl)-2-methoxybenzoyl]amino}methyl)pyridin-2-yl]carbamate] | 3.2 µM | 16 µM |
| COc1ccc(C(=O)Nc2ccc(-c3ccccc3F)nc2)cc1C(=O)Nc1cccnc1 [Example 60, N^1-[6-(2-fluorophenyl)pyridin-3-yl]-4-methoxy-N^3-(pyridin-3-yl)isophthalamide] | 6.05 µM | 11 µM |
| Cc1ccc(C(=O)Nc2ccc(-c3ccccc3)cc2)cc1C(=O)Nc1ccnc(F)c1 [Example 43, N^1-(biphenyl-4-yl)-N^3-(2-fluoropyridin-4-yl)-4-methylisophthalamide] | 1.37 µM | ≥ 50 µM |

These reach a lower IC50 [1]. Values come first.

| IC50 [1] | IC50 [2] | SMILES |
| --- | --- | --- |
| 0.36 µM | ≥ 50 µM | COc1ccc(C(=O)Nc2ccc(-c3ccccc3F)nc2)cc1C(=O)Nc1ccnc(C)c1 [Example 26, N^1-[6-(2-fluorophenyl)pyridin-3-yl]-4-methoxy-N^3-(2-methylpyridin-4-yl)isophthalamide] |
| 0.675 µM | ≥ 50 µM | O=C(Nc1ccc(-c2ccccc2F)nc1)c1ccc(OC(F)(F)F)c(C(=O)Nc2ccncc2)c1 [Example 17, N^1-[6-(2-fluorophenyl)pyridin-3-yl]-N^3-(pyridin-4-yl)-4-(trifluoromethoxy)isophthalamide] |
| 0.645 µM | ≥ 50 µM | COc1ccc(C(=O)Nc2ccc(-c3ccccc3F)nc2)cc1C(=O)Nc1ccncc1F [Example 27, N^1-[6-(2-fluorophenyl)pyridin-3-yl]-N^3-(3-fluoropyridin-4-yl)-4-methoxyisophthalamide] |
| 0.129 µM | ≥ 50 µM | COc1ccc(NC(=O)c2ccc(-c3ccccc3)cc2)cc1C(=O)Nc1ccncc1F [Example 8, N-{3-[(3-fluoropyridin-4-yl)carbamoyl]-4-methoxyphenyl}biphenyl-4-carboxamide] |
| 0.415 µM | 11.5 µM | COc1ccc(C(=O)Nc2ccc(-c3ccccc3)cc2)cc1C(=O)Nc1ccncc1 [Example 11, N^1-(biphenyl-4-yl)-4-methoxy-N^3-(pyridin-4-yl)isophthalamide] |
| 0.359 µM | ≥ 50 µM | O=C(Nc1ccc(-c2ccccc2)cc1)c1ccc(OC(F)(F)F)c(C(=O)NCc2ccccn2)c1 [Example 7, N^1-(biphenyl-4-yl)-N^3-(pyridin-2-ylmethyl)-4-(trifluoromethoxy)isophthalamide] |
| 0.483 µM | 35 µM | COc1ccc(NC(=O)c2ccc(-c3ccccc3)cc2)cc1C(=O)Nc1ccncc1 [Example 1, N-[4-methoxy-3-(pyridin-4-ylcarbamoyl)phenyl]biphenyl-4-carboxamide] |
| 0.6 µM | 10 µM | Cc1cc(NC(=O)c2cc(C(=O)Nc3ccc(-c4ccccc4)cc3)ccc2OC(F)(F)F)ccn1 [Example 10, N^1-(biphenyl-4-yl)-N^3-(2-methylpyridin-4-yl)-4-(trifluoromethoxy)isophthalamide] |
| 0.335 µM | 7.55 µM | O=C(Nc1ccc(-c2ccccc2)cc1)c1ccc(OC(F)(F)F)c(C(=O)Nc2ccncc2)c1 [Example 20, N^1-(biphenyl-4-yl)-N^3-(pyridin-4-yl)-4-(trifluoromethoxy)isophthalamide] |
| 0.405 µM | ≥ 50 µM | COc1ccc(C(=O)Nc2ccc(-c3ccccc3)cc2)cc1C(=O)Nc1ccncc1C [Example 13, N^1-(biphenyl-4-yl)-4-methoxy-N^3-(3-methylpyridin-4-yl)isophthalamide] |
| 0.144 µM | ≥ 50 µM | COc1ccc(C(=O)Nc2ccc(-c3ccccc3)cc2)cc1C(=O)Nc1ccncc1F [Example 14, N^1-(biphenyl-4-yl)-N^3-(3-fluoropyridin-4-yl)-4-methoxyisophthalamide] |
